For eleven molecules, excess molar enthalpy and mass density results are on record in the NIST ThermoML archive (doi:10.1016/j.fluid.2007.07.063).

A short description of data set [1]: excess molar enthalpy (molar enthalpy of mixing); xn = mol fraction of the nth substance listed. Particulars: 298.15 K, 101 kPa, Liquid, Flow calorimetry.
The conditions of data set [2]: 298.15 K; 101.33 kPa; Liquid; Pycnometric method.

SMILES strings stand for the structures. Numbers after ± are expanded uncertainties.

On to `C=CCCCCCC` [oct-1-ene] + CCCCCCCCCCO, for which the excess molar enthalpy in data set [1] (x2 = 0.097) worked out at 0.0643 ± 0.00335 kcal/mol; in data set [1] (x2 = 0.195) it was 0.0875 ± 0.00454 kcal/mol; in data set [1] (x2 = 0.293), 0.0956 ± 0.00478 kcal/mol; in data set [1] (x2 = 0.406), 0.0924 ± 0.00478 kcal/mol; in data set [1] (x2 = 0.504), 0.0834 ± 0.0043 kcal/mol; in data set [1] (x2 = 0.602), 0.072 ± 0.00359 kcal/mol. Also, the excess molar enthalpy in data set [1] (x2 = 0.7) is 0.0578 ± 0.00287 kcal/mol; in data set [1] (x2 = 0.8) it was 0.0397 ± 0.00203 kcal/mol; in data set [1] (x2 = 0.902), 0.0182 ± 0.000956 kcal/mol.
With `CCCCCCCCCCO` [decan-1-ol], the mass density in data set [2] was 826.31 ± 0.74 kg/m3.
`C=CCCCCCC` [oct-1-ene] + CCCO: the excess molar enthalpy in data set [1] (x2 = 0.094) turned out to be 0.104 ± 0.00526 kcal/mol; in data set [1] (x2 = 0.189) it was 0.154 ± 0.00789 kcal/mol; in data set [1] (x2 = 0.302) it was 0.183 ± 0.00932 kcal/mol; in data set [1] (x2 = 0.398), 0.179 ± 0.00908 kcal/mol; in data set [1] (x2 = 0.495) it was 0.163 ± 0.00837 kcal/mol; in data set [1] (x2 = 0.593), 0.143 ± 0.00717 kcal/mol. The excess molar enthalpy in data set [1] (x2 = 0.693) was 0.117 ± 0.00598 kcal/mol; in data set [1] (x2 = 0.799) it was 0.0814 ± 0.00406 kcal/mol; in data set [1] (x2 = 0.899) it was 0.0435 ± 0.00222 kcal/mol.
As to `C=CCCCCCC` [oct-1-ene] + CCCCCCO, the excess molar enthalpy in data set [1] (x2 = 0.096) was determined as 0.0801 ± 0.00406 kcal/mol; in data set [1] (x2 = 0.192) it was 0.105 ± 0.00526 kcal/mol; in data set [1] (x2 = 0.307), 0.12 ± 0.00598 kcal/mol; in data set [1] (x2 = 0.403) it was 0.118 ± 0.00598 kcal/mol; in data set [1] (x2 = 0.5), 0.106 ± 0.00526 kcal/mol; in data set [1] (x2 = 0.598), 0.0912 ± 0.00454 kcal/mol. The results for the excess molar enthalpy in data set [1] (x2 = 0.697), in data set [1] (x2 = 0.802) and in data set [1] (x2 = 0.9) were 0.0724 ± 0.00359 kcal/mol, 0.0491 ± 0.00263 kcal/mol and 0.0233 ± 0.00122 kcal/mol, respectively.
As to `CCCO` [propan-1-ol], the mass density in data set [2] is given as 799.65 ± 0.72 kg/m3.
As to `C=CCCCCCC` [oct-1-ene] + CCCCCCCCO, the excess molar enthalpy in data set [1] (x2 = 0.097) was determined as 0.0699 ± 0.00359 kcal/mol; in data set [1] (x2 = 0.194) it was 0.0935 ± 0.00478 kcal/mol; in data set [1] (x2 = 0.292), 0.104 ± 0.00526 kcal/mol; in data set [1] (x2 = 0.391) it was 0.103 ± 0.00526 kcal/mol; in data set [1] (x2 = 0.49), 0.0942 ± 0.00478 kcal/mol; in data set [1] (x2 = 0.6), 0.0814 ± 0.00406 kcal/mol. The excess molar enthalpy in data set [1] (x2 = 0.699) was 0.0631 ± 0.00311 kcal/mol; in data set [1] (x2 = 0.799), 0.0429 ± 0.0022 kcal/mol; in data set [1] (x2 = 0.899), 0.0188 ± 0.00098 kcal/mol.
As for `C=CCCCCCC` [oct-1-ene] + CCCCO, the excess molar enthalpy in data set [1] (x2 = 0.095) stood at 0.0949 ± 0.00478 kcal/mol; in data set [1] (x2 = 0.209), 0.14 ± 0.00717 kcal/mol; in data set [1] (x2 = 0.304), 0.154 ± 0.00789 kcal/mol; in data set [1] (x2 = 0.4), 0.149 ± 0.00765 kcal/mol; in data set [1] (x2 = 0.497), 0.132 ± 0.00669 kcal/mol; in data set [1] (x2 = 0.595), 0.109 ± 0.0055 kcal/mol. In addition, the excess molar enthalpy came out at 0.0832 ± 0.0043 kcal/mol in data set [1] (x2 = 0.702), 0.0565 ± 0.00287 kcal/mol in data set [1] (x2 = 0.8) and 0.0286 ± 0.00148 kcal/mol in data set [1] (x2 = 0.899).
`CCCCCCO` [hexan-1-ol]: in data set [2], the mass density is 815.4 ± 0.78 kg/m3.
As to `CCCCO` [butan-1-ol], the mass density in data set [2] was 805.71 ± 0.73 kg/m3.
For `CCCCCCCCO` [octan-1-ol], the mass density in data set [2] was found to be 822.47 ± 0.83 kg/m3.
As to `C=CCCCCCC` [oct-1-ene], the mass density in data set [2] was found to be 710.88 ± 0.64 kg/m3.

A word on the mass density: it is the mass of a sample divided by its volume.
